Results from US9150530B2, “Esters of 4, 9-dihydroxy-naphtho [2, 3-b] furans for disease therapies” (Zhoushan Haizhongzhou Xinsheng Pharmaceuticals Co., Ltd., priority 2011, dated 2015).

Assays:
[1] = Metabolism in biological fluid (human whole blood, cancer cell lysate, liver microsomes, mouse oral uptake), HPLC; format: in vitro ADME; details: liver microsomes or mouse oral uptake system, 20 μM, 37° C.
Description: Second, a major metabolite found after incubation of compound I, III, IV, VI or XIII in biological fluid, such as human whole blood, or cancer cell lysate, or liver microsomes, or mouse oral uptake system, is compound XII (FIG. 3). Similarly, a major metabolite found after incubation of compound V, VII or XIV in biological fluid is 2-(1-hydroxy-n-propyl)-naphtho[2,3-b]furan-4,9-dione (data not shown). Reduction of the position 2 substituent carbonyl group is part of quinone redox reaction as evidenced by the β-lapachone effect on the formation of compound XII in the compound XIII incubation mixture of human whole blood (part D of FIG. 3). The possible reaction mechanism is proposed as shown in scheme 7, in which the two electron reduction could be NQ01 catalyzed reduction or two successive cytochrome b5 reductase or p450 reductase catalyzed reaction. As substrate of these enzymes, β-lapachone could compete for the two electron or single electron reaction and thus reduced formation of the metabolism product.
Crystalline or amorphous solid of compound was mixed with excipient and suspended in 0.5% carboxymethylcellulose (CMC) solution in a mortar. Then the mixture was orally administered into ICR mouse at the predetermined dosage. At the predetermined time point, blood was drawn from the mouse and stored in the vial containing heparin. The blood samples were centrifuged at 6,000 rpm for 10 min, and plasmas were separated. To each plasma sample, 9 times volume of acetonitrile/methyl trifluoromethanesulfonate (1000:1) or acetonitrile/concentrated HCl (1000:1) was added. The resulting mixtures were vortexed and incubated in dry ice for 30 minutes or in −20° C. freezer for 3 hours, then centrifuged, and supernatants were separated for HPLC analysis using gradient B.
The biological systems for in vitro metabolism study include: human whole blood stabilized with sodium citrate; cancer cell lysate (obtained using freeze-thaw method, 10 mg/ml in protein concentration for use); liver microsomes with NADPH generation system (prepared according to the protocol provided by iPhase Pharma, Beijing, China);
10 mM of a compound of formula I or its analog or compound XIII in DMSO (however, compound VI was in DMF) was added into the biological system to a final concentration of 20 μM. The mixtures were incubated at 37° C. for predetermined time. To each sample, then 9 times volume of acetonitrile was added. The resulting mixtures were vortexed and incubated in dry ice for 30 minutes or in −20° C. freezer for 3 hours, then centrifuged, and supernatants were separated for HPLC analysis using gradient B.

[2] = system: DLD1; assay: Effect of NQ01 inhibitor (dicumarol) on biological activity, MTT, DLD1; format: cell-based; details: DLD1 (significant NQ01 enzymatic activity); dicumarol 40 μM; 48 hr
Description: (§1) Cell Viability Determination: Popular MTT method (Archives of Biochemistry and Biophysics, 1993, 303: 474-482) was used to screen the in vitro effects of the invented drugs. Briefly, 5000 to 10000 cells were inoculated per well in a 96-well plate. After overnight incubation, drug was added to the wells at final concentration of 10 μM, […], 2.5 μM, 1.25 μM, or 1 μM, 0.75 μM, 0.5 μM and 0.25 μM in complete culture medium. Each dose level covered 4 equivalent wells. After 48 hour incubation, one tenth volume of 5 mg/mL MTT (thiazolyl blue tetrazolium bromide, Sigma-Aldrich) stock solution was added, and incubation was continued for 2 hours. Then medium was removed and 100 μL of isopropanol solution comprising 86% isopropanol, 4% aqueous 1 N HCl and 10% aqueous SDS solution (10% in concentration) was added. The absorbance of each well at 570 nm wavelength was measured by a micro-plate reader after gentle shaking for 20 minutes. Drug concentrations of 50% cell viability (IC50) were calculated by LOGIT method.
(§2) Effect of NQ01 Inhibitor (Dicumarol) on the Biological Activities of 2-acetyl-4,9-diacetoxy-naphtho[2,3-b]furan and Compound XIII (Part B and C of FIG. 4):MTT assay was used for this experiment. Same procedure as described in “Cell Viability Determination” section. […] The viability of cells at each well was read out after 48 hr incubation in cell culture incubator.

[3] = system: Panc-1; assay: Effect of NQ01 inhibitor (dicumarol) on biological activity, MTT, Panc-1; format: cell-based; details: Panc-1 (no significant NQ01 enzymatic activity); dicumarol 40 μM; 48 hr
Description: as §1, §2

[4] = system: DLD1; assay: Effect of drug incubation time on biological activity, MTT, DLD1; format: cell-based; details: DLD1 (significant NQ01 activity)
Description: as §1
(§3) Effect of Drug Incubation Time on the Biological Activities of Compound XIII (FIG. 7): MTT assay was used for this experiment. Same procedure as described in “Cell Viability Determination” section. Briefly, cancer cells were inoculated on 96 well culture plates. […] The viability of cells at each well was read out using MTT method.

[5] = system: A549; assay: Effect of drug incubation time on biological activity, MTT, A549; format: cell-based; details: A549 (significant NQ01 activity)
Description: as §1, §3

[6] = system: H1299; assay: Effect of drug incubation time on biological activity, MTT, H1299; format: cell-based; details: H1299 (no NQ01 activity)
Description: as §1, §3

[7] = system: Panc 1; assay: Effect of drug incubation time on biological activity, MTT, Panc 1; format: cell-based; details: Panc 1 (no NQ01 activity)
Description: as §1, §3

With `CC(=O)c1cc2c(o1)C(=O)c1ccccc1C2=O` [compound XIII, 2-acetyl-naphtho[2,3-b]furan-4,9-dione] the “Major metabolite found after incubation in biological fluid” value [1] was “compound XII”, the “Dicumarol effect on anticancer activity” value [2] was “dicumarol attenuates anticancer activities” and the “Dicumarol effect on anticancer activity” value [3] was “dicumarol showed little effect”. For the same compound, the “Cell growth inhibition, full time treatment versus 4 hour treatment” value [4] was “made no significant difference in cell growth inhibition”, the “Cell growth inhibition, full time treatment versus 4 hour treatment” value [5] was “made no significant difference in cell growth inhibition” and the “Cell growth inhibition, full time treatment versus 4 hour treatment” value [6] was “full time treatment with compound XIII caused much higher cell growth inhibition than 4 hour treatment”. The “Cell growth inhibition, full time treatment versus 4 hour treatment” value [7] was “full time treatment with compound XIII caused much higher cell growth inhibition than 4 hour treatment”.
